Experimental data reported in ChEMBL document CHEMBL5465560, “Selectivity Literature for EUbOPEN Chemogenomic Library” (2024).

How the values were obtained:
[1] = target: Platelet-derived growth factor receptor beta (Homo sapiens, UniProt P09619); experiment: Selectivity interaction (KinomeScan (DiscoverX)) EUB0000666a PDGFRB; conditions: at 10 µM
[2] = target: T1, Serine/threonine-protein kinase TAO2 (Homo sapiens) (UniProt Q9UL54); experiment: Selectivity interaction (KinomeScan (DiscoverX)) EUB0000229b TAOK2; conditions: at 10 µM
T1 sequence (whole entry): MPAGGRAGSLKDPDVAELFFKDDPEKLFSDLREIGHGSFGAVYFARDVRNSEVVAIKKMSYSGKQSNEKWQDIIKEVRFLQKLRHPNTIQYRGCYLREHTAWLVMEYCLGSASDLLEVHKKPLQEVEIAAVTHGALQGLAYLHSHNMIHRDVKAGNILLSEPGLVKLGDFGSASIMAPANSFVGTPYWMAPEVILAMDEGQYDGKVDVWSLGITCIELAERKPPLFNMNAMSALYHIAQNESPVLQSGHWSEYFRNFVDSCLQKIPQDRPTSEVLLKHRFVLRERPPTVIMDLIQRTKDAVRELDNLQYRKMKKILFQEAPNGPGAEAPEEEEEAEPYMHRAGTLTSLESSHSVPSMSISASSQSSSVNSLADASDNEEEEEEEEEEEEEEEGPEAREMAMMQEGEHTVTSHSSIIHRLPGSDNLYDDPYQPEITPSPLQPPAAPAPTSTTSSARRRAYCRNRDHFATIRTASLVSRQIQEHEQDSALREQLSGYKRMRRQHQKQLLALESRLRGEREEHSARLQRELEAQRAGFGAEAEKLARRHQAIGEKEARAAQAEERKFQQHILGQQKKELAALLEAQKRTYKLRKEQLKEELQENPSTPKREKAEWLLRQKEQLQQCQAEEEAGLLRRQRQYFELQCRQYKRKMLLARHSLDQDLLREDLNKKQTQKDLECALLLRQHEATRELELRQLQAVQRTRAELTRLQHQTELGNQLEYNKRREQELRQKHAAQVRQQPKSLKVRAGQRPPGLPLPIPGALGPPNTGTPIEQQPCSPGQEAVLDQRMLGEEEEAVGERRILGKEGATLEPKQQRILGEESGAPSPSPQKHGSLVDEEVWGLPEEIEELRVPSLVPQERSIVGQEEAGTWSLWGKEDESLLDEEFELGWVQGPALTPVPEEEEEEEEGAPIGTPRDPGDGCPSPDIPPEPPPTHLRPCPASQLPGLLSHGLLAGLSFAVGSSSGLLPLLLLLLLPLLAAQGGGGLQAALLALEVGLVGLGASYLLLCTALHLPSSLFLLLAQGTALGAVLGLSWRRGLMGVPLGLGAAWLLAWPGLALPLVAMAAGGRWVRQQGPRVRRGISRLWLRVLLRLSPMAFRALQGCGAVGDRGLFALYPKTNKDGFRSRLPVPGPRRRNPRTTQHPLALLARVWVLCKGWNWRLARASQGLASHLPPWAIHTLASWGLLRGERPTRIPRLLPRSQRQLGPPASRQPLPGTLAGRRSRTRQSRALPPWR

[3] = target: Proto-oncogene tyrosine-protein kinase receptor Ret (Homo sapiens, UniProt P07949); experiment: Selectivity interaction (Kinase panel (Invitrogen)) EUB0000639a RET; conditions: at 200 nM
[4] = target: T2, Serine/threonine-protein kinase Sgk3 (Homo sapiens) (UniProt Q96BR1); experiment: Selectivity interaction (ActivX KiNativ screen (kinase selectivity in THP-1 cell lysates)) EUB0000639a SGK3; format: subcellular; conditions: lysate, at 0.01 µM
T2 sequence (whole entry): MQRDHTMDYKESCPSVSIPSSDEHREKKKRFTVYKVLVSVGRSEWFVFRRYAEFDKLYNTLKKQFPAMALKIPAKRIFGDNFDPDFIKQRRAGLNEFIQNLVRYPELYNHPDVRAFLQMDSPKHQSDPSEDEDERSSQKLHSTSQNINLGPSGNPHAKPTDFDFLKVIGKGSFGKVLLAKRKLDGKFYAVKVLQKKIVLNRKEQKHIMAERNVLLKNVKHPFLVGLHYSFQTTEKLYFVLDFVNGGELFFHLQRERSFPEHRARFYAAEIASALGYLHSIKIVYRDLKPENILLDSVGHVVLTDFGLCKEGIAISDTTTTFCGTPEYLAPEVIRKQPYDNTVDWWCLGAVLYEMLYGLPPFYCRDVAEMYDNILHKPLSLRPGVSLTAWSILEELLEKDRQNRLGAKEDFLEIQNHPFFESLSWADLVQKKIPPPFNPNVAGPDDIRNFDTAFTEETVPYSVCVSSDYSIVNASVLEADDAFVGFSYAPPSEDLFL

[5] = target: T3, MAP/microtubule affinity-regulating kinase 4 (Homo sapiens) (UniProt Q96L34); conditions: at 10 µM
T3 sequence (whole entry): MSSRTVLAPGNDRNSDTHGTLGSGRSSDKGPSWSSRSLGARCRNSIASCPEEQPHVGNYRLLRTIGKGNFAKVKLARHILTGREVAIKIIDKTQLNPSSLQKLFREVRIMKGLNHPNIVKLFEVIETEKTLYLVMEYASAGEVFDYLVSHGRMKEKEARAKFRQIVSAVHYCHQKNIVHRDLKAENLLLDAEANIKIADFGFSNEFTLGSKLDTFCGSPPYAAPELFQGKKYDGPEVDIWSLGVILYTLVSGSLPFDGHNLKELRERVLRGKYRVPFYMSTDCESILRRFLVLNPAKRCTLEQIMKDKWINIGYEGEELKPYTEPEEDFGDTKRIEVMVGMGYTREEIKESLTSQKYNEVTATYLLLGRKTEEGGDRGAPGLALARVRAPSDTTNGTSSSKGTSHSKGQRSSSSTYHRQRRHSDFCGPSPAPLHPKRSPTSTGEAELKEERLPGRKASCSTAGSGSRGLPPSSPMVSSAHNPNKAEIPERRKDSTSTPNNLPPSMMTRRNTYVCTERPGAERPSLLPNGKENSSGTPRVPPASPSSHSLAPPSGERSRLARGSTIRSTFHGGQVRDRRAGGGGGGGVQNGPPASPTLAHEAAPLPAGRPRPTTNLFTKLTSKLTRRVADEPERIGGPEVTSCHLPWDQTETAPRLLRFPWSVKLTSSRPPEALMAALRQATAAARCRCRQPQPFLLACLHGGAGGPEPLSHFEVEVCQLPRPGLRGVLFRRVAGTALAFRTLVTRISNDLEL

[6] = target: Myosin light chain kinase, smooth muscle (Homo sapiens, UniProt Q15746); experiment: Selectivity interaction (LanthaScreen Eu Kinase Binding Assay) EUB0001632a MYLK; conditions: at 10 µM
[7] = target: Serine/threonine-protein kinase MARK1 (Homo sapiens) (UniProt Q9P0L2); experiment: Selectivity interaction (ProQinase) EUB0000171b MARK1
[8] = target: Serine/threonine-protein kinase WNK1 (Homo sapiens) (UniProt Q9H4A3); experiment: Selectivity interaction (ProQinase) EUB0000171b WNK1
Serine/threonine-protein kinase WNK1 (Homo sapiens), sequence (Q9H4A3 whole entry, looked up): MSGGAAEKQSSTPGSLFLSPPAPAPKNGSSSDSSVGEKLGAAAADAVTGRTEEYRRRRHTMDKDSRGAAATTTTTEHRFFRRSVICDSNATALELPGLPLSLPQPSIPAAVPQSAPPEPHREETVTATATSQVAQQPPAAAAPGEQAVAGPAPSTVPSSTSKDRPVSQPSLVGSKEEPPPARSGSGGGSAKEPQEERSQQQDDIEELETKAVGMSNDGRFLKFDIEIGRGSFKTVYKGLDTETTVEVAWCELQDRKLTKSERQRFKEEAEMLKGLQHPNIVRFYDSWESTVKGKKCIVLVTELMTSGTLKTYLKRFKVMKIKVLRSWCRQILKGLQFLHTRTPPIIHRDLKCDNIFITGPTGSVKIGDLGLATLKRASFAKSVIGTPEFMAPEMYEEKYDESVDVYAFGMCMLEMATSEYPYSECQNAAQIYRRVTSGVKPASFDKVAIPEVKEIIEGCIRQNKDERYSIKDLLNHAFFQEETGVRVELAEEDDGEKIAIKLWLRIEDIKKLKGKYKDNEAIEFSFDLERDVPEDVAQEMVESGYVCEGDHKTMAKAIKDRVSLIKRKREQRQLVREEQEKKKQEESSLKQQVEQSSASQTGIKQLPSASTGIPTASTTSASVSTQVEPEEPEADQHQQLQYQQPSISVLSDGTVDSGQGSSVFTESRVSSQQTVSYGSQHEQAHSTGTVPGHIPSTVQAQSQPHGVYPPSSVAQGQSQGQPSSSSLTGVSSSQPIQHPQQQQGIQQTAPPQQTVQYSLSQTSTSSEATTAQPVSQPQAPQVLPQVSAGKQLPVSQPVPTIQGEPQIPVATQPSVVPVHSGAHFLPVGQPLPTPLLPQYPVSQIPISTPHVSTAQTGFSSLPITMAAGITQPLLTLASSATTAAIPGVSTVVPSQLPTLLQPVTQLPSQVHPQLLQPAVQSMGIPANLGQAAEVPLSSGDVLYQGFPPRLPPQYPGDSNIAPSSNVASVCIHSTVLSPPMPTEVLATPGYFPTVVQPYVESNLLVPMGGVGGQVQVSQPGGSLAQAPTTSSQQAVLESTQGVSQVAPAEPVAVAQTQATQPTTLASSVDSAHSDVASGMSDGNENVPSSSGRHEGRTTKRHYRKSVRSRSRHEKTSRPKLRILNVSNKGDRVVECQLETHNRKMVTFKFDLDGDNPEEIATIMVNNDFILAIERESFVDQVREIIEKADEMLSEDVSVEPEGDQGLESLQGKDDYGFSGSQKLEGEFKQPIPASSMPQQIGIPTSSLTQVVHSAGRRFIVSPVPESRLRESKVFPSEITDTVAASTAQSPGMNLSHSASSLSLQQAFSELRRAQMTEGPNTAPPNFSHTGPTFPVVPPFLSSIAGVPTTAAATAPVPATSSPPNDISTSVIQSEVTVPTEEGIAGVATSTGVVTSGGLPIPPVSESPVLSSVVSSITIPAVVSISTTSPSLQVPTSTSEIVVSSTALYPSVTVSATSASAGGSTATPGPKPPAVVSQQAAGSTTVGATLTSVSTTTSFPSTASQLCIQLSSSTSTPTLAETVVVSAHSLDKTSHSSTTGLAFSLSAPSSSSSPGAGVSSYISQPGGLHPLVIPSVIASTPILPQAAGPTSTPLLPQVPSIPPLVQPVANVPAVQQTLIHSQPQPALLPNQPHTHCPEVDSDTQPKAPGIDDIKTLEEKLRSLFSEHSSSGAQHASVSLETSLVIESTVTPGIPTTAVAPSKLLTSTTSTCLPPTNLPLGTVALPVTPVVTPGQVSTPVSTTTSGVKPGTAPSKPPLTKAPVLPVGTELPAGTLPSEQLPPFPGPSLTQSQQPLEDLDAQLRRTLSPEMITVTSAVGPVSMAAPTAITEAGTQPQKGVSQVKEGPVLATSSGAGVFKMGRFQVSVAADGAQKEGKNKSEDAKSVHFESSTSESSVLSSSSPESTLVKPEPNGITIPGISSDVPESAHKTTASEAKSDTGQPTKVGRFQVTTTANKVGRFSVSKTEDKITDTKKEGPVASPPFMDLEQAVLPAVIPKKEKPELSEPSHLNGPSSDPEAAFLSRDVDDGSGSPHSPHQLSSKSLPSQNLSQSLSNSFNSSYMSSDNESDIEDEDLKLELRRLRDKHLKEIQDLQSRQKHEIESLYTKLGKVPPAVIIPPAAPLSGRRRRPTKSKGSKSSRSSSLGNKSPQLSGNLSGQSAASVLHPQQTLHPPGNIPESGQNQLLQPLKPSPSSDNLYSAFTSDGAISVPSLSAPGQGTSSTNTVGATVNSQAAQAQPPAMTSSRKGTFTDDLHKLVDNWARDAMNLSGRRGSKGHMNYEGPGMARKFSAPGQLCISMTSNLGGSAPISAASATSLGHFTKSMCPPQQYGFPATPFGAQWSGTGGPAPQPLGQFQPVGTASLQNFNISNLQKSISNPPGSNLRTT

Serine/threonine-protein kinase MARK1 (Homo sapiens), sequence (Q9P0L2 whole entry, looked up): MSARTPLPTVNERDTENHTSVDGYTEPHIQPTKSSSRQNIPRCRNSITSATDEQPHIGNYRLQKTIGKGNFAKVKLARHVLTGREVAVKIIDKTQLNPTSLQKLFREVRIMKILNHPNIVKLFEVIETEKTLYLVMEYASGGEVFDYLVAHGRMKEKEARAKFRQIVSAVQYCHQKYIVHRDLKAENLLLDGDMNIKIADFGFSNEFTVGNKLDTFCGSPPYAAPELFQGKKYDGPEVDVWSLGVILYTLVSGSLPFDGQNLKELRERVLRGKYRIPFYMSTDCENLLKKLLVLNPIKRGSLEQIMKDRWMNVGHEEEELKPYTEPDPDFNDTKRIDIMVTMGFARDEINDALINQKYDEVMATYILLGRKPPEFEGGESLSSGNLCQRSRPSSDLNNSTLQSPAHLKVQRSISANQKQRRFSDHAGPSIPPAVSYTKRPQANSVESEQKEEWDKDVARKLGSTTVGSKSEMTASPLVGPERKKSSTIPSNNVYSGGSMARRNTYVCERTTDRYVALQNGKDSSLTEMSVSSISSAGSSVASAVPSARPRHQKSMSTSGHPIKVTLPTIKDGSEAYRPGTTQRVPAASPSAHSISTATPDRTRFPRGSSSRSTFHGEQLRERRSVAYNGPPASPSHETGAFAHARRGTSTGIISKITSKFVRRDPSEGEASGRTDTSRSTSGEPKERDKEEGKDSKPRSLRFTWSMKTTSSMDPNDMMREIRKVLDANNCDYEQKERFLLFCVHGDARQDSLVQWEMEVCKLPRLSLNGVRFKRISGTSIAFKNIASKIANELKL
Proto-oncogene tyrosine-protein kinase receptor Ret, sequence (P07949 whole entry): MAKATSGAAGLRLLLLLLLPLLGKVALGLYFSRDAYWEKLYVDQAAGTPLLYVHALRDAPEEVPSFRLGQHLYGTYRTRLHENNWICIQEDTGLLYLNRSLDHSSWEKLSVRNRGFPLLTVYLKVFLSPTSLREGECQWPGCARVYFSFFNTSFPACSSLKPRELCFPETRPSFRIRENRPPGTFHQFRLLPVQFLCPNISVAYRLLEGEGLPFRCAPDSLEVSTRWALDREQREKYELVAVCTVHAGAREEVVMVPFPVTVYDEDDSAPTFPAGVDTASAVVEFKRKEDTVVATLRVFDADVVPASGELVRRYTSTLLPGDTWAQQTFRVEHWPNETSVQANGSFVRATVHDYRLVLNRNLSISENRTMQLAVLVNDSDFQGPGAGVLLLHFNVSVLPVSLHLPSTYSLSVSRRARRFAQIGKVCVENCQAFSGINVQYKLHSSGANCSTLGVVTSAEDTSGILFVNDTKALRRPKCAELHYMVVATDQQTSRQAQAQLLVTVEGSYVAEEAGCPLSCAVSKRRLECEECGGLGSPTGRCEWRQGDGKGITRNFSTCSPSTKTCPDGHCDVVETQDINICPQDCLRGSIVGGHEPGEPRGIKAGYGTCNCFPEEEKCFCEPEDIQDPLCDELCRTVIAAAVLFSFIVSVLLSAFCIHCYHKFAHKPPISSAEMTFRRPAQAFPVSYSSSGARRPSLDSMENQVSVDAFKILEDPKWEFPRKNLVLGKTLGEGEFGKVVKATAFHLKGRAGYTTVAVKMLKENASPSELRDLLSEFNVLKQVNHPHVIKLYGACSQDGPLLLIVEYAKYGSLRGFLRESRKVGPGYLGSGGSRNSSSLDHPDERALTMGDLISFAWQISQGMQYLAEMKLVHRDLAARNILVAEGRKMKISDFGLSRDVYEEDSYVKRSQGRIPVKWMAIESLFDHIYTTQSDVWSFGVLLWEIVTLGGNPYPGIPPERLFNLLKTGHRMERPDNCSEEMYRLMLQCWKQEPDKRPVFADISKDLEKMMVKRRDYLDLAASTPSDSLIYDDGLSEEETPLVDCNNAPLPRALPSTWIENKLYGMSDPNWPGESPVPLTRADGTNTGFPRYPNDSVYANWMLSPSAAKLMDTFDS

SMILES: O=C(NOC[C@H](O)CO)c1ccc(F)c(F)c1Nc1ccc(I)cc1F
- % of control [1]: 66%

SMILES: COc1cc(N(C)c2ccnc3ccc(C(F)(F)F)cc23)cc(OC)c1OC
- % binding [2]: 80%

SMILES: CC[C@@H]1[C@H](F)C(=O)N[C@@H]1COc1nccc2cc(C(N)=O)c(OC)cc12 [ZIMLOVISERTIB]
- % of inhibition [3]: 58.9%
- % of inhibition [4]: -1%

SMILES: Cc1cc([C@@H](C)Nc2ccccc2C(=O)O)c2nc(N3CCOCC3)cc(=O)n2c1 [AZD-6482]
- % of control [5]: 100%

SMILES: Cn1cc(-n2cnc3c(NCc4nc5cc(Cl)c(Cl)cc5[nH]4)nc(N4CCOCC4)nc32)cn1
- % of inhibition [6]: -1.03%

SMILES: C=CC(=O)Nc1cccc(C(=O)Nc2ccc(Nc3cc(-c4[nH]c(SC)nc4C)ccn3)cc2)c1
- % of control ([7]; at 1 µM): 100%
- % of control ([7]; at 5 µM): 88%
- % of control ([8]; at 1 µM): 95%
- % of control ([8]; at 5 µM): 81%
